Where two headings read alike, the source gives them in different places.
Assays:
[1] = test system: Phospho-ERK in LC-2/ad lung cancer cells; test: Phospho-ERK ELISA in LC-2/ad tumor cells; type: cell-based; details: Homo sapiens, 1 h, read-out: Cell IC50 Phospho-ERK
Protocol: (§1) The compounds of the present invention were dissolved in dimethyl sulfoxide (DMSO) to prepare 10 mM stock solutions, and ten different doses by 3-fold serial dilutions from 10 mM were prepared. An ELISA assay format was used in the test.
(§2) PathScan® Phospho-Ret (panTyr) and p44/42 MAPK (Thr202/Tyr204) (ERK) Sandwich ELISA kits were purchased from Cell Signaling Technology. The LC-2/ad lung cancer cell line was purchased from Sigma-Aldrich. […] The medium was supplemented with 10% fetal bovine serum (FBS), 100 μg/mL penicillin and 100 μg/mL streptomycin, and the cultures were maintained at 37° C. in a humidified atmosphere of 5% CO2 and 95% air.
(§3) a) 1.5×10^4 LC-2/ad cells were seeded in the wells of a 96-well tissue culture plate overnight;
(§4) b) the cells were treated with DMSO or the test compound in DMSO (the initial concentration was 1 μM, and ten doses by 3-fold serial dilutions) for one hour;
(§5) The plate was shaken for 1 minute, then placed on a rocking platform at 4° C. for 30 minutes;
(§6) d) 80 μL/well of lysate was added to the appropriate wells of each ELISA plate and the plate was incubated overnight at 4° C. on a rocking platform;
(§7) e) the contents of the plate were discarded into a container and the wells were washed for four times with 200 μL/well of 1×ELISA wash buffer;
(§8) f) 100 μL of reconstituted Phospho-Ret(panTyr) or Phospho-ERK(Thr202/Tyr204; p44/42MAPK) detection antibody was added to the appropriate wells and the plate was incubated at 37° C. for 1 hour;
(§9) g) the washing procedure was repeated and 100 μL of reconstituted HRP-linked secondary antibody was added to each well of two plates and the plates were incubated at 37° C. for 30 minutes;
(§10) h) the washing procedure was repeated, 100 μL of TMB substrate was added to each well, and the plates were incubated at 37° C. for 45 minutes;
(§11) i) 100 μL of STOP solution was added to each well and the plate was gently shaken for a few seconds.

wild-type RET kinase = molecular target: T1, wild-type RET kinase (Homo sapiens, UniProt P07949); test: Biochemical IC50 of wild-type RET kinase (33P-ATP filter binding, Reaction Biology)
T1 construct: purchased Reaction Biology Corporation (contract assay; enzyme is the CRO's)
T1 sequence (P07949 29-1114): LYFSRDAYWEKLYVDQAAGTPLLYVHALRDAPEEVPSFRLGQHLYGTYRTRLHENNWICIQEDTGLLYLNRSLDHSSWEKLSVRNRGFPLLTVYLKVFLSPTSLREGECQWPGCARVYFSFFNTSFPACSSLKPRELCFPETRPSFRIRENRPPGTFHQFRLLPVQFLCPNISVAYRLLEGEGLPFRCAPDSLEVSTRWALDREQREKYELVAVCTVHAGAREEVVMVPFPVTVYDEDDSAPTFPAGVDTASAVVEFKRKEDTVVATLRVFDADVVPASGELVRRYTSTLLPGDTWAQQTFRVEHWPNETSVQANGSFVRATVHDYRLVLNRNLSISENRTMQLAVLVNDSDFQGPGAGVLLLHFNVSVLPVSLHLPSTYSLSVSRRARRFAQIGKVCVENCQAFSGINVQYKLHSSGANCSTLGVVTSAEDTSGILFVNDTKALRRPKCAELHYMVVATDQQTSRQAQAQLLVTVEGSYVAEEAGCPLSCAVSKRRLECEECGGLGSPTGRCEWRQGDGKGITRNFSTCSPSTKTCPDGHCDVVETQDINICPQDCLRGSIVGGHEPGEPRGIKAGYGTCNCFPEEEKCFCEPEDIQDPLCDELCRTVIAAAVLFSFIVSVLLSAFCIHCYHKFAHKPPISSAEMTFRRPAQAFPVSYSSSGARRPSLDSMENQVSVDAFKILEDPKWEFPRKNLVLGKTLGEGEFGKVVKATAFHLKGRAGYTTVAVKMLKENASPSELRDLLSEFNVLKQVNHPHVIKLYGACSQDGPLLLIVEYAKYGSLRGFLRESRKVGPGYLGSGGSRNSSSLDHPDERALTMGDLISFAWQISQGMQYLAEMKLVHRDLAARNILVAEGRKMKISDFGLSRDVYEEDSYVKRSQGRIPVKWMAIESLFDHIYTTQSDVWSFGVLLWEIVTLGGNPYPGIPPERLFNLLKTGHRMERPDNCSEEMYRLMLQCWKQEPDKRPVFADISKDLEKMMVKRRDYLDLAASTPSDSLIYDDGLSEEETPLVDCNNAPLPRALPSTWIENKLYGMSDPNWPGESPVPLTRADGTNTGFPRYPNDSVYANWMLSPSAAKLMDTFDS
Protocol: (§12) For detailed test methods, the following references were referred to: T. Anastassiadis, S. W. Deacon, K. Devarajan, H. Ma, J. R. Peterson. […] Nat. Biotech.
(§13) The compounds of the present invention were dissolved in dimethyl sulfoxide (DMSO) to prepare 10 mM stock solutions, and ten different doses by 3-fold serial dilutions from 10 mM were prepared. The ATP concentration used in this determination was 1 μM.
(§14) Base reaction buffer: 20 mM 4-(2-hydroxyethyl)-1-piperazineethanesulfonic acid buffer (Hepes, pH 7.5), 10 mM magnesium chloride, 1 mM ethylene glycol-bis(3-aminoethylether)-N,N,N′,N′-tetraacetic acid (EGTA), 0.02% Brij™-35 (purchased from ThermoFisher Scientific), 0.02 mg/mL bovine serum albumin (BSA), 0.1 mM sodium orthovanadate (Na3VO4), 2 mM dithiothreitol (DTT), 1% dimethyl sulfoxide (DMSO).
(§15) a) adding the corresponding substrate to a freshly prepared base reaction buffer;
(§16) b) adding necessary cofactors;
(§17) c) adding kinase and shake gently;
(§18) d) adding the compounds in DMSO using Acoustic technology (Echo550; nanoliter range) and incubating at room temperature for 20 minutes;
(§19) e) adding 33P-ATP (specific activity 10 μCi/μL) to initiate the reaction;
(§20) f) incubating the kinase reaction at room temperature for 2 hours;
(§21) g) spotting the resultant of reaction on P81 ion exchange paper (purchased from Whatman);
(§22) h) detecting kinase activity by filter binding assay.
(§23) IC50 values were generated using Prism (GraphPad software).

[2] = test system: Phospho-RET in LC-2/ad lung cancer cells; test: Phospho-RET ELISA in LC-2/ad tumor cells; type: cell-based; details: Homo sapiens, LC-2-ad, 1 h, read-out: Cell IC50 Phospho-RET
Protocol: as §1, §2, §3, §4, §5, §6, §7, §8, §9, §10, §11

RET-CCDC6 = molecular target: T2, RET-CCDC6 (Homo sapiens, UniProt P07949); test: Biochemical IC50 of RET-CCDC6 fusion (33P-ATP filter binding, Reaction Biology)
T2 construct: CCDC6 (fusion partner, UniProt Q16204); purchased Reaction Biology Corporation (contract assay; enzyme is the CRO's); the other entry of the earlier key: CCDC6 (Q16204, Coiled-coil domain-containing protein 6)
T2 sequence (P07949 with tags, fused parts or gaps): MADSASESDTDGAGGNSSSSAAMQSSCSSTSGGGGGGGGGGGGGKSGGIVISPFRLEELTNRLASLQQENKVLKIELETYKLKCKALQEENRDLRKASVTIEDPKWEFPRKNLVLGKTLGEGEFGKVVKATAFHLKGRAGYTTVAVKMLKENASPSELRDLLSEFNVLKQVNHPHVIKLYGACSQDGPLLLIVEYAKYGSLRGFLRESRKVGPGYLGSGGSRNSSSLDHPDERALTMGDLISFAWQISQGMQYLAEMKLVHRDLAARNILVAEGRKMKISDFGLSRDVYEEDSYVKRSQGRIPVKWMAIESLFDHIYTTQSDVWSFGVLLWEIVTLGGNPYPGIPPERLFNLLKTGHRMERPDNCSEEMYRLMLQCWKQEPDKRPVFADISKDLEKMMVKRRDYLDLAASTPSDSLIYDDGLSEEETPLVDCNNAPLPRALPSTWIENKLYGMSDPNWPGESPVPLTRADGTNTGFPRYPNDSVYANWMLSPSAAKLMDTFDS
Protocol: as §12, §13, §14, §15, §16, §17, §18, §19, §20, §21, §22, §23

RET(V804M) mutant = molecular target: T3, RET(V804M) mutant (Homo sapiens, UniProt P07949, V804M); test: Biochemical IC50 of RET(V804M) mutant (33P-ATP filter binding, Reaction Biology)
T3 construct: purchased Reaction Biology Corporation (contract assay; enzyme is the CRO's)
T3 sequence (P07949 29-1114 V804M): as the sequence (P07949 29-1114) above, with V776M counted along it
Protocol: as §12, §13, §14, §15, §16, §17, §18, §19, §20, §21, §22, §23

[3] = wild-type RET kinase, ATP 1 μM, 33P-ATP filter binding, read-out: Biochemical IC50 RET
[4] = RET-CCDC6 fusion, ATP 1 μM, 33P-ATP filter binding, read-out: Biochemical IC50 RET-CCDC6
[5] = RET(V804M) mutant, ATP 1 μM, 33P-ATP filter binding, read-out: Biochemical IC50 RET (V804M)

SMILES | IC50 [1] | IC50 (wild-type RET kinase) | IC50 [2] | IC50 (RET-CCDC6) | IC50 (RET(V804M) mutant) | IC50 (wild-type RET kinase; [3]) | IC50 (RET-CCDC6; [4]) | IC50 (RET(V804M) mutant; [5])
COc1ccc(CN=S2(=O)CCN(c3ccc(-c4cc(-c5cnn(C)c5)cn5ncc(C#N)c45)cn3)CC2)cn1 [Ex. 14, 4-(6-(1-(((6-methoxypyridin-3-yl)methyl)imino)-1-oxothiomorpholinyl)pyridin-3-yl)-6-(1-methyl-1H-pyrazole-4-yl)pyrazolo[1,5-a]pyridine-3-carbonitrile] | 82.5 nM | 0.657 nM | 11.5 nM | 0.336 nM | 5.21 nM |  |  | 
COc1ccc(N=S2(=O)CCN(c3ccc(-c4cc(-c5cnn(C)c5)cn5ncc(C#N)c45)cn3)CC2)cn1 [Ex. 15, 4-(6-(1-((6-methoxypyridin-3-yl)imino)-1-oxothiomorpholinyl)pyridin-3-yl)-6-(1-methyl-1H-pyrazole-4-yl)pyrazolo[1,5-a]pyridine-3-carbonitrile] | 321 nM |  | 0.51 nM |  |  | 0.759 nM | 0.518 nM | 1.72 nM
Cn1cc(-c2cc(-c3ccc(N4CCC(N=S(C)(C)=O)CC4)nc3)c3c(C#N)cnn3c2)cn1 [Ex. 16, 4-(6-(4-((dimethyloxo-λ^4-sulfinyl)amino)piperidin-1-yl)pyridin-3-yl)-6-(1-methyl-1H-pyrazole-4-yl)pyrazolo[1,5-a]pyridine-3-carbonitrile] | 7.19 nM | 1.16 nM | 66.4 nM | 0.619 nM | 5.55 nM |  |  | 
Cn1cc(-c2cc(-c3ccc(N4CCC(N=[S@](C)(=O)c5ccccc5)CC4)nc3)c3c(C#N)cnn3c2)cn1 [Ex. 18, 4-(6-(4-(((R)—S-methyl-S-phenyl-oxo-λ^4-sulfinyl)amino)piperidin-1-yl)pyridin-3-yl)-6-(1-methyl-1H-pyrazole-4-yl)pyrazolo[1,5-a]pyridine-3-carbonitrile] | 6.83 nM |  | 7.1 nM |  |  | 0.907 nM | 0.501 nM | 4.72 nM
Cn1cc(-c2cn3ncc(C#N)c3c(-c3ccc(N4CCS(=N)(=O)CC4)nc3)n2)cn1 [Ex. 20, 4-(6-(1-imino-1-oxothiomorpholinyl)pyridin-3-yl)-6-(1-methyl-1H-pyrazole-4-yl)pyrazolo[1,5-a]pyrazine-3-carbonitrile] | 7.77 nM | 1.16 nM | 91.4 nM | 0.677 nM | 7.91 nM |  |  | 
COc1ccc(CN=S2(=O)CCN(c3ccc(-c4nc(-c5cnn(C)c5)cn5ncc(C#N)c45)cn3)CC2)cn1 [Ex. 21, 4-(6-(1-(((6-methoxypyridin-3-yl)methyl)imino)-1-oxothiomorpholinyl)pyridin-3-yl)-6-(1-methyl-1H-pyrazole-4-yl)pyrazolo[1,5-a]pyrazine-3-carbonitrile] | 6.42 nM | 1.02 nM | 21.3 nM | 0.528 nM | 7.83 nM |  |  | 
Cn1cc(-c2cn3ncc(C#N)c3c(-c3ccc(N4CCC(N=[S@](C)(=O)c5ccccc5)CC4)nc3)n2)cn1 [Ex. 25, 4-(6-(4-(((R)—S-methyl-S-phenyl-oxo-λ^4-sulfinyl)amino)piperidin-1-yl)pyridin-3-yl)-6-(1-methyl-1H-pyrazole-4-yl)pyrazolo[1,5-a]pyrazine-3-carbonitrile] | 9.27 nM | 2.02 nM | 84.7 nM | 1.15 nM | 10.6 nM |  |  | 

From patent US20220380366A1, “HETEROCYCLIC SULFOXIMINE COMPOUND AND INTERMEDIATE THEREOF, PREPARATION METHOD THEREFOR, AND APPLICATION THEREOF” (priority 2019, published 2022)
